Each compound was assayed against T1, CCK-B receptors (Cavia porcellus, UniProt H0VZC5) (assay: Measurement of Binding Affinity for CCK-B Receptors). Settings: inhibition of specific [3H]CCK-8 (1.0 nM) binding; guinea pig cerebral cortex; 25° C., 2 hours; pH 6.5; read-out: Ki (CCK-B receptors).
T1 construct: Cerebral cortices were removed from Hartley-strain guinea pigs, the cerebral cortices were homogenized; from tissue; host or cells: cerebral cortex of Hartley-strain guinea pigs, crude membrane pellet
T1 sequence (H0VZC5 1-426): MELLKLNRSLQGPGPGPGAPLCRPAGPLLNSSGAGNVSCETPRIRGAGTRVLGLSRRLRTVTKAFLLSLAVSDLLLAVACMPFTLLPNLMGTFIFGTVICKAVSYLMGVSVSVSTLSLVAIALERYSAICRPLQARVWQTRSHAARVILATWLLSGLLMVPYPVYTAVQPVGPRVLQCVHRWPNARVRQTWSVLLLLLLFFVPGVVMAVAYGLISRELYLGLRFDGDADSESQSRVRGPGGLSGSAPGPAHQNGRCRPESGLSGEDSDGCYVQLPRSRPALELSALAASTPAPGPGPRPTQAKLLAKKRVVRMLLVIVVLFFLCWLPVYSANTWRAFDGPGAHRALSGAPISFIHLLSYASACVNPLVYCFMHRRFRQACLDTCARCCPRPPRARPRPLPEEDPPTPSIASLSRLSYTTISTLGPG
Parameters: species or system Hartley-strain guinea pig
Procedure: Cerebral cortices were removed from Hartley-strain guinea pigs, the cerebral cortices were homogenized in 50 volumes of 50 mM Tris-HCl buffer (pH7.4) and centrifuged at 50000×g for 10 minutes. The Tris-HCl buffer was added to the pellet and recentrifuged as above two times. The final pellet was rehomogenized in 10 mM HEPES buffer (pH 6.5, which hereinafter be abbreviated as "solvent") containing 5 mM MgCl2, 1 mM EGTA, 0.25 mg/ml bacitracin and 130 mM NaCl, and used as the receptor preparation.
Binding assay was measured as follows. Fifty μl of [^3 H]CCK-8 (at the final concentration of 1.0 nM) and 900 μl of the receptor preparation (800 μg protein/tube) were added to 50 μl of either solvent, CCK-8 (1 μM) or a test compound. These ware reacted at 25° C. for 2 hours. After the reaction, the mixture was filtrated through Whatman GF/B filter presoaked in 0.1% BSA. The filter was washed with 3 ml of ice-cold 50 mM Tris-HCl buffer (pH 7.4) four times, immediately after the filtration. The filter was soaked in the ACS-II scintillation cocktail for a day and radioactivity was measured using a liquid scintillation counter. Non-specific binding was defined as the radioactivity in the presence of 1 μM CCK-8. Specific binding was defined as the difference between total binding (used solvent without CCK-8) and non-specific binding. Inhibitor dissociation constant (Ki) of each test compound was determined from the inhibition of specific [^3 H]CCK-8 binding.

Q: For `Cc1ccc2c(c1)N(CC(=O)c1ccccc1C)C(=O)C(NC(=O)Nc1cccc(C(=O)O)c1)CN2C(=O)C(C)(C)C` (racemic) [Example 13 (racemate), 3-[3-[1-(2-toluoylmethyl)-2-oxo-5-pivaloyl-8-methyl-1,3,4,5-tetrahydro-2H-1,5-benzodiazepin-3-yl]ureido]benzoic acid], which Ki is on record?
A: 3.16 nM

Q: For `Cc1ccccc1C(=O)CN1C(=O)C(NC(=O)Nc2cccc(C(=O)O)c2)CN(C(=O)C(C)(C)C)c2ccccc21` (single isomer, unassigned), which Ki is on record?
A: 1.42 nM

Q: Which Ki does the source give for `Cc1ccc2c(c1)N(CC(=O)c1ccccc1C)C(=O)C(NC(=O)Nc1cccc(C(=O)O)c1)CN2C(=O)C(C)(C)C` (single isomer, unassigned; (+)) [Example 13 (+form), (+)-3-[3-[1-(2-toluoylmethyl)-2-oxo-5-pivaloyl-8-methyl-1,3,4,5-tetrahydro-2H-1,5-benzodiazepin-3-yl]ureido]benzoic acid] here?
A: 1.16 nM

Q: Which Ki does the source give for `Cc1cccc(NC(=O)NC2CN(C(=O)C(C)(C)C)c3ccc(C)cc3N(CC(=O)c3ccccc3C)C2=O)c1` (stereo not drawn) [Example 4, 1-[1-(2-toluoylmethyl)-2-oxo-5-pivaloyl-8-methyl-1,3,4,5-tetrahydro-2H-1,5-benzodiazepin-3-yl]-3-(3-methylphenyl)urea] here?
A: 1.11 nM

Q: How did the Ki turn out when `CN(C(=O)CN1C(=O)C(NC(=O)Nc2cccc(C(=O)NS(C)(=O)=O)c2)CN(c2ccccc2)c2ccccc21)c1ccccc1` (stereo not drawn) [Example 15, 1-[1-(N-phenyl-N-methyl)carbamoylmethyl-2-oxo-5-phenyl-1,3,4,5-tetrahydro-2H-1,5-benzodiazepin-3-yl]-3-(3-methylsulfonylaminocarbonylphenyl)urea] was run?
A: 0.99 nM

Q: `CC(C)(C)OC(=O)CN1C(=O)C(NC(=O)Nc2cccc(C(=O)NS(C)(=O)=O)c2)CN(c2ccccc2)c2ccccc21` (stereo not drawn) [Example 16, 1-(1-tert-butoxycarbonylmethyl-2-oxo-5-phenyl-1,3,4,5-tetrahydro-2H-1,5-benzodiazepin-3-yl)-3-(3-methylsulfonylaminocarbonylphenyl)urea] was tested. Which Ki did it give?
A: 2.14 nM

Q: With `CC(C)(C)C(=O)CN1C(=O)C(NC(=O)Nc2cccc(OCC(=O)O)c2)CN(c2ccccc2)c2ccccc21` (stereo not drawn) [Example 35, 3-[3-(1-tert-butylcarbonylmethyl-2-oxo-5-phenyl-1,3,4,5-tetrahydro-2H-1,5-benzodiazepin-3-yl)ureido]phenoxyacetic acid] as the compound, how does the Ki read?
A: 0.61 nM

Q: How did the Ki turn out when `CC(C)(C)C(=O)CN1C(=O)C(NC(=O)Nc2cccc(C(=O)NS(C)(=O)=O)c2)CN(c2ccccc2)c2ccccc21` (stereo not drawn) [Example 46, 1-(1-tert-butylcarbonylmethyl-2-oxo-5-phenyl-1,3,4,5-tetrahydro-2H-1,5-benzodiazepin-3-yl)-3-(3-methylsulfonylaminocarbonylphenyl)urea] was run?
A: 0.7 nM

Q: For `COC(=O)N1CC(NC(=O)Nc2cccc(C)c2)C(=O)N(CC(=O)c2ccccc2C)c2ccccc21` (stereo not drawn) [Example 49, 1-[1-(2-toluoylmethyl)-2-oxo-5-methoxycarbonyl-1,3,4,5-tetrahydro-2H-1,5-benzodiazepin-3-yl]-3-(3-methylphenyl)urea], which Ki is on record?
A: 5.02 nM

Q: `Cc1ccccc1C(=O)CN1C(=O)C(NC(=O)Nc2cccc(-c3nnn[nH]3)c2)CN(C(=O)C(C)(C)C)c2ccccc21` (stereo not drawn) [Example 61, 1-[1-(2-toluoylmethyl)-2-oxo-5-pivaloyl-1,3,4,5-tetrahydro-2H-1,5-benzodiazepin-3-yl]-3-[3-(tetrazol-5-yl)phenyl]urea] was tested. Which Ki did it give?
A: 0.98 nM

Q: With `Cc1ccccc1C(=O)CN1C(=O)C(NC(=O)Nc2cccc(-c3noc(=O)[nH]3)c2)CN(C(=O)C(C)(C)C)c2ccccc21` (stereo not drawn) [Example 62, 1-[1-(2-toluoylmethyl)-2-oxo-5-pivaloyl-1,3,4,5-tetrahydro-2H-1,5-benzodiazepin-3-yl]-3-[3-(5-oxo-4H-1,2,4-oxadiazolin-3-yl)phenyl]urea] as the compound, how does the Ki read?
A: 0.79 nM

Q: How did the Ki turn out when `Cc1cccc(NC(=O)NC2CN(c3ccccc3)c3ccccc3N(CC(=O)C(C)(C)C)C2=O)c1` (stereo not drawn) [Example 71, 1-(1-tert-butylcarbonylmethyl-2-oxo-5-phenyl-1,3,4,5-tetrahydro-2H-1,5-benzodiazepin-3-yl)-3-(3-methylphenyl)urea] was run?
A: 2.88 nM

Q: Which Ki does the source give for `Cc1ccccc1C(=O)CN1C(=O)C(NC(=O)Nc2cccc(CC(=O)O)c2)CN(C(=O)C(C)(C)C)c2ccccc21` (stereo not drawn) [Example 72, 3-[3-[1-(2-toluoylmethyl)-2-oxo-5-pivaloyl-1,3,4,5-tetrahydro-2H-1,5-benzodiazepin-3-yl]ureido]phenylacetic acid] here?
A: 1.57 nM

Q: With `Cc1ccccc1C(=O)CN1C(=O)C(NC(=O)Nc2cccc(SCC(=O)O)c2)CN(C(=O)C(C)(C)C)c2ccccc21` (stereo not drawn) [Example 78, 3-[3-[1-(2-toluoylmethyl)-2-oxo-5-pivaloyl-1,3,4,5-tetrahydro-2H-1,5-benzodiazepin-3-yl]ureido]phenylthioacetic acid] as the compound, how does the Ki read?
A: 0.18 nM

Q: For `CC(C)(C)OC(=O)CN1C(=O)C(NC(=O)Nc2cccc(SCC(=O)O)c2)CN(c2ccccc2)c2ccccc21` (stereo not drawn) [Example 81, 3-[3-[1-tert-butoxycarbonylmethyl-2-oxo-5-phenyl-1,3,4,5-tetrahydro-2H-1,5-benzodiazepin-3-yl]ureido]phenylthioacetic acid], which Ki is on record?
A: 0.56 nM

Q: For `CCC(C)(C)C(=O)N1CC(NC(=O)Nc2cccc(C(=O)O)c2)C(=O)N(CC(=O)c2ccccc2C)c2cc(C)ccc21` (stereo not drawn) [Example 93, 3-[3-[1-(2-toluoylmethyl)-2-oxo-5-(2,2-dimethylbutanoyl)-8-methyl-1,3,4,5-tetrahydro-2H-1,5-benzodiazepin-3-yl]ureido]benzoic acid], which Ki is on record?
A: 1.29 nM

Q: For `Cc1ccc2c(c1)N(CC(=O)c1ccccc1C)C(=O)C(NC(=O)Nc1cccc(C(=O)O)c1)CN2C(=O)c1ccccn1` (stereo not drawn) [Example 105, 3-[3-[1-(2-toluoylmethyl)-2-oxo-5-(2-pyridylcarbonyl)-8-methyl-1,3,4,5-tetrahydro-2H-1,5-benzodiazepin-3-yl]ureido]benzoic acid], which Ki is on record?
A: 1.33 nM

Q: How did the Ki turn out when `CC(C)(C)C(=O)CN1C(=O)[C@H](NC(=O)Nc2cccc(OC(C)(C)C(=O)O)c2)CN(C2CCCCC2)c2ccccc21` [Example 125, (R)-(-)-2-methyl-2-[3-[3-(1-tert-butylcarbonylmethyl-2-oxo-5-cyclohexyl-1,3,4,5-tetrahydro-2H-1,5-benzodiazepin-3-yl)ureido]phenoxy]propionic acid] was run?
A: 0.43 nM

Q: With `COc1cccc(NC(=O)NC2CN(C3CCCCC3)c3ccccc3N(CC(=O)C(C)(C)C)C2=O)c1` (stereo not drawn) [Example 151, 1-(1-tert-butylcarbonylmethyl-2-oxo-5-cyclohexyl-1,3,4,5-tetrahydro-2H-1,5-benzodiazepin-3-yl)-3-(3-methoxyphenyl)urea] as the compound, how does the Ki read?
A: 2.86 nM

Q: Which Ki does the source give for `CC(C)(C)C(=O)CN1C(=O)[C@H](NC(=O)Nc2cccc(C(=O)O)c2)CN(C[C@@H]2CC[C@H]3C[C@@H]2C3(C)C)c2ccccc21` [Example 157, 3-[3-[(3R)-1-tert-butylcarbonylmethyl-2-oxo-5-[(1S, 2R, 5S)-pinan-10-yl]-1,3,4,5-tetrahydro-2H-1,5-benzodiazepin-3-yl]ureido]benzoic acid] here?
A: 1.97 nM

The compounds below were run on pentagastrin-stimulated acid secretion (assay: Measurement of Inhibition of Pentagastrin-stimulated Acid Secretion). Settings: 0.3 mg/kg, intraduodenal, rat; acid output from 1 to 4 hours after administration; pentagastrin 15 μg/kg/hr.
Format: in vivo, male Sprague-Dawley (SD)-strain rats
Procedure: Male Sprague-Dawley (SD)-strain rats were used. Each rat was operated to ligate the pylorus, and equip with a duodenal catheter and gastric fistula under a ether anesthesia. After the operation, each rat was placed in a Bollman-type cage and continuously infused pentagastrin (15 μg/kg/hr) through the tail vein. Test compounds were suspended in 0.5% aqueous sodium carboxymethylcellulose (which hereinafter be abbreviated as "vehicle"). Vehicle or test compound was administered through the intraduodenal catheter 1 hour after the beginning of pentagastrin infusion. Acidity of the collected gastric juice was measured by an automatic titillation device. Acid output was determined by multiplying the volume by the acidity of gastric juice. […] [formula]

Q: For `Cc1ccc(NC(=O)N[C@@H]2CN(C3CCCCC3)c3ccccc3N(CC(=O)C(C)(C)C)C2=O)cc1C(=O)O` [Example 166, (R)-(-)-2-methyl-5-[3-(1-tert-butylcarbonylmethyl-2-oxo-5-cyclohexyl-1,3,4,5-tetrahydro-2H-1,5-benzodiazepin-3-yl)ureido]benzoic acid], which inhibition in vivo at 0.3 mg/kg is on record?
A: 51.2%

Same assay, conditions: 1 mg/kg, intraduodenal, rat; acid output from 1 to 4 hours after administration; pentagastrin 15 μg/kg/hr

Q: With `Cc1ccc2c(c1)N(CC(=O)c1ccccc1C)C(=O)C(NC(=O)Nc1cccc(C(=O)O)c1)CN2C(=O)C(C)(C)C` (single isomer, unassigned; (+)) [Example 13 (+form), (+)-3-[3-[1-(2-toluoylmethyl)-2-oxo-5-pivaloyl-8-methyl-1,3,4,5-tetrahydro-2H-1,5-benzodiazepin-3-yl]ureido]benzoic acid] as the compound, how does the inhibition in vivo at 1 mg/kg read?
A: 81.5%

Same assay, conditions: 3 mg/kg, intraduodenal, rat; acid output from 1 to 4 hours after administration; pentagastrin 15 μg/kg/hr

Q: For `Cc1ccc2c(c1)N(CC(=O)c1ccccc1C)C(=O)C(NC(=O)Nc1cccc(C(=O)O)c1)CN2C(=O)C(C)(C)C` (racemic) [Example 13 (racemate), 3-[3-[1-(2-toluoylmethyl)-2-oxo-5-pivaloyl-8-methyl-1,3,4,5-tetrahydro-2H-1,5-benzodiazepin-3-yl]ureido]benzoic acid], which inhibition in vivo at 3 mg/kg is on record?
A: 80.9%

Same assay, conditions: 30 mg/kg, intraduodenal, rat; acid output from 1 to 4 hours after administration; pentagastrin 15 μg/kg/hr

Q: Which inhibition in vivo at 30 mg/kg does the source give for `Cc1ccc2c(c1)N(CC(=O)c1cccs1)C(=O)C(NC(=O)Nc1cccc(C(=O)O)c1)CN2C(=O)C(C)(C)C` (stereo not drawn) [Example 89, 3-[3-[1-(2-Thenoylmethyl)-2-oxo-5-pivaloyl-8-methyl-1,3,4,5-tetrahydro-2H-1,5-benzodiazepin-3-yl]ureido]benzoic acid] here?
A: 87.8%

Q: `Cc1ccc2c(c1)N(CC(=O)c1ccccc1C)C(=O)C(NC(=O)Nc1cccc(C(=O)O)c1)CN2C(=O)c1ccco1` (stereo not drawn) [Example 113, 3-[3-[1-(2-toluoylmethyl)-2-oxo-5-(furan-2-ylcarbonyl)-8-methyl-1,3,4,5-tetrahydro-2H-1,5-benzodiazepin-3-yl]ureido]benzoic acid] was tested. Which inhibition in vivo at 30 mg/kg did it give?
A: 75.7%

Q: `Cc1ccc2c(c1)N(CC(=O)C(C)(C)C)C(=O)C(NC(=O)Nc1cccc(C(=O)O)c1)CN2C1CCCCC1` (stereo not drawn) [Example 118, 3-[3-(1-tert-butylcarbonylmethyl-2-oxo-5-cyclohexyl-8-methyl-1,3,4,5-tetrahydro-2H-1,5-benzodiazepin-3-yl)ureido]benzoic acid] was tested. Which inhibition in vivo at 30 mg/kg did it give?
A: 88.3%

Same assay, conditions: Rattus norvegicus, intraduodenal, 4 h, read-out: % Inhibition of acid output

Q: How did the inhibition in vivo at 10 mg/kg turn out when `Cc1ccccc1C(=O)CN1C(=O)C(NC(=O)Nc2cccc(C(=O)O)c2)CN(C(=O)C(C)(C)C)c2ccccc21` (single isomer, unassigned) was run?
A: 69.8%

Source: patent publication US6239131A, “1,5 Benzodiazepine derivatives” (Zeria Pharmaceutical Co., Ltd., priority 1996, dated 2001)
